{"source": "patent US10336697B2", "about": "“Spiro[cyclobutane-1,3′-indolin]-2′-one derivatives as bromodomain inhibitors” (Orion Corporation, priority 2015, dated 2019)"}
{"biological_target": "Bet BRD4 full length bromo-domain protein (Homo sapiens, UniProt O60885)", "assay": "Bet bromodomain TR-FRET assay (displacement of acetyl histone peptide)", "assay_type": "binding", "details": "Bet BRD4 full length bromodomain protein, 300 nM acetyl histone peptide substrate, read-out: IC50", "units": {"IC50": "nM"}}
{"smiles": "CN1CCC(NC(=O)c2cc(NC(=O)c3ccc(F)cc3F)cc3c2NC(=O)C32CCC2)CC1", "note": "[Compound 75, 5′-(2,4-Difluorobenzamido)-N-(1-methylpiperidin-4-yl)-2′-oxospiro[cyclobutane-1,3′-indoline]-7′-carboxamide]", "IC50": "> 1000"}
{"smiles": "O=C1Nc2c(OC3CCNCC3)cc(NS(=O)(=O)c3ccc(Cl)cc3F)cc2C12CCC2", "note": "[Compound-197, 4-Chloro-2-fluoro-N-(2′-oxo-7′-(piperidin-4-yloxy)spiro-[cyclobutane-1,3′-indolin]-5′-yl)benzene sulfonamide]", "IC50": "< 600"}
{"smiles": "O=C1Nc2c(NCc3ccncc3)cc(NS(=O)(=O)c3ccc(F)cc3F)cc2C12CCC2", "note": "[Compound 23, 2,4-Difluoro-N-(2′-oxo-7′-((pyridin-4-ylmethyl)amino)spiro[cyclobutane-1,3′-indolin]-5′-yl)benzenesulfonamide]", "IC50": "< 600"}
{"smiles": "CN1CCC(NC(=O)c2cc(N(C)S(=O)(=O)c3ccc(F)cc3F)cc3c2NC(=O)C32CCC2)CC1", "note": "[Compound 72, 5′-((2,4-Difluoro-N-methylphenyl)sulfonamido)-N-(1-methylpiperidin-4-yl)-2′-oxospiro[cyclobutane-1,3′-indoline]-7′-carboxamide]", "IC50": "> 1000"}
{"smiles": "COc1cc(F)ccc1S(=O)(=O)Nc1cc(Cc2ccccc2)c2c(c1)C1(CCC1)C(=O)N2", "note": "[Compound 94, N-(7′-benzyl-2′-oxospiro[cyclobutane-1,3′-indolin]-5′-yl)-4-fluoro-2-methoxybenzenesulfonamide]", "IC50": "< 600"}
{"smiles": "CN1CCC(CCc2cc(NS(=O)(=O)c3ccc(F)cc3F)cc3c2NC(=O)C32CCC2)CC1", "note": "[Compound 116, 2,4-Difluoro-N-(7′-(2-(1-methylpiperidin-4-yl)ethyl)-2′-oxospiro-[cyclobutane-1,3′-indolin]-5′-yl)benzenesulfonamide]", "IC50": "< 600"}
{"smiles": "O=C(Nc1ccncc1)c1cc(NS(=O)(=O)c2ccc(F)cc2F)cc2c1NC(=O)C21CCC1", "note": "[Compound 57, 5′-(2,4-Difluorophenylsulfonamido)-2′-oxo-N-(pyridin-4-yl)spiro[cyclobutane-1,3′-indoline]-7′-carboxamide]", "IC50": "< 600"}
{"smiles": "COc1ccccc1S(=O)(=O)Nc1cc(OC2CCN(C)CC2)c2c(c1)C1(CCC1)C(=O)N2", "note": "[Compound-127, 2-methoxy-N-(7′-((1-methylpiperidin-4-yl)oxy)-2′-oxospiro[cyclobutane-1,3′-indolin]-5′-yl)benzenesulfonamide]", "IC50": "< 600"}
{"smiles": "CCNCCOc1cc(NS(=O)(=O)c2ccccc2OC)cc2c1NC(=O)C21CCC1", "note": "[compound 205, N-(7′-(2-(ethylamino)ethoxy)-2′-oxospiro[cyclobutane-1,3′-indolin]-5′-yl)-2-methoxybenzenesulfonamide]", "IC50": "< 600"}
{"smiles": "COc1ccccc1S(=O)(=O)Nc1cc(Oc2ccc(N)nc2)c2c(c1)C1(CCC1)C(=O)N2", "note": "[Compound 145, N-(7′-((6-aminopyridin-3-yl)oxy)-2′-oxospiro[cyclobutane-1,3′-indolin]-5′-yl)-2-methoxybenzenesulfonamide]", "IC50": "< 600"}
{"smiles": "COc1ccccc1S(=O)(=O)Nc1cc(OC2CCN(C3CC3)CC2)c2c(c1)C1(CCC1)C(=O)N2", "note": "[Compound 137, N-(7′-((1-cyclopropylpiperidin-4-yl)oxy)-2′-oxospiro[cyclobutane-1,3′-indolin]-5′-yl)-2-methoxybenzenesulfonamide]", "IC50": "< 600"}
{"smiles": "O=C1Nc2c(OCCc3ccccn3)cc(NS(=O)(=O)c3ccc(Cl)cc3F)cc2C12CCC2", "note": "[Compound 159, 4-Chloro-2-fluoro-N-(2′-oxo-7′-(2-(pyridin-2-yl)ethoxy)spiro[cyclobutane-1,3′-indolin]-5′-yl)benzenesulfonamide]", "IC50": "< 600"}
{"smiles": "CS(=O)(=O)N1CCC(Oc2cc(NS(=O)(=O)c3ccc(Cl)cc3F)cc3c2NC(=O)C32CCC2)CC1", "note": "[Compound-210, 4-Chloro-2-fluoro-N-(7′-((1-(methylsulfonyl)piperidin-4-yl)-oxy)-2′-oxospiro[cyclobutane-1,3′-indolin]-5′-yl)benzenesulfonamide]", "IC50": "< 600"}
{"smiles": "COc1ccccc1S(=O)(=O)Nc1cc(C(F)c2ccccc2)c2c(c1)C1(CCC1)C(=O)N2", "note": "(stereo not drawn) [Compound 125, N-(7′-(fluoro(phenyl)methyl)-2′-oxospiro[cyclobutane-1,3′-indolin]-5′-yl)-2-methoxybenzenesulfonamide]", "IC50": "< 600"}
{"smiles": "COc1ccccc1S(=O)(=O)Nc1cc(NC2CCN(C)CC2F)c2c(c1)C1(CCC1)C(=O)N2", "note": "(stereo not drawn) [Compound 78, N-(7′-((3-fluoro-1-methylpiperidin-4-yl)amino)-2′-oxospiro [cyclobutane-1,3′-indolin]-5′-yl)-2-methoxy benzenesulfonamide]", "IC50": "< 600"}
{"smiles": "O=C(NC1CCNCC1)c1cc(NS(=O)(=O)c2ccc(F)cc2F)cc2c1NC(=O)C21CCC1", "note": "[Compound 66, 5′-(2,4-Difluorophenylsulfonamido)-2′-oxo-N-(piperidin-4-yl)spiro[cyclobutane-1,3′-indoline]-7′-carboxamide]", "IC50": "< 600"}
{"smiles": "CCN1CCC(Oc2cc(NS(=O)(=O)c3ccccc3OC)cc3c2NC(=O)C32CCC2)CC1", "note": "[Compound 135, N-(7′-((1-ethylpiperidin-4-yl)oxy)-2′-oxospiro[cyclobutane-1,3′-indolin]-5′-yl)-2-methoxybenzenesulfonamide]", "IC50": "< 600"}
{"smiles": "COc1ccccc1S(=O)(=O)Nc1cc(Oc2ccccn2)c2c(c1)C1(CCC1)C(=O)N2", "note": "[Compound 124, 2-Methoxy-N-(2′-oxo-7′-(pyridin-2-yloxy)spiro[cyclobutane-1,3′-indolin]-5′-yl)benzenesulfonamide]", "IC50": "< 600"}
{"smiles": "O=C1C=C(Nc2cc(NS(=O)(=O)c3ccc(F)cc3F)cc3c2NC(=O)C32CCC2)CCN1", "note": "[Compound 76, 2,4-Difluoro-N-(2′-oxo-7′-((6-oxo-1,2,3 ,6-tetrahydropyridin-4-yl)-amino)spiro[cyclobutane-1,3′-indolin]-5′-yl)benzenesulfonamide]", "IC50": "< 600"}
{"smiles": "O=C(NC1CCCNC1)c1cc(NS(=O)(=O)c2ccc(F)cc2F)cc2c1NC(=O)C21CCC1", "note": "(stereo not drawn) [Compound 65, 5′-(2,4-Difluorophenylsulfonamido)-2′-oxo-N-(piperidin-3-yl)spiro[cyclobutane-1,3′-indoline]-7′-carboxamide]", "IC50": "< 600"}
{"smiles": "CN1CCC(NC(=O)c2cc(NS(=O)(=O)c3ccc(Br)cc3F)cc3c2NC(=O)C32CCC2)CC1", "note": "[Compound 74, 5′-((4-Bromo-2-fluorophenyl)sulfonamido)-N-(1-methylpiperidin-4-yl)-2′-oxospiro[cyclobutane-1,3′-indoline]-7′-carboxamide]", "IC50": "< 600"}
{"smiles": "CN1CCC(NC(=O)c2cc(NS(=O)(=O)c3ccccc3F)cc3c2NC(=O)C32CCC2)CC1", "note": "[Compound 73, 5′-(2-Fluorophenylsulfonamido)-N-(1-methylpiperidin-4-yl)-2′-oxospiro[cyclobutane-1,3′-indoline]-7′-carboxamide]", "IC50": "< 600"}
{"smiles": "CC1(C)CNCCC1Nc1cc(NS(=O)(=O)c2ccc(F)cc2F)cc2c1NC(=O)C21CCC1", "note": "(stereo not drawn) [Compound 103, N-(7′-((3,3-dimethylpiperidin-4-yl)amino)-2′-oxospiro[cyclobutane-1,3′-indolin]-5′-yl)-2,4-difluorobenzenesulfonamide]", "IC50": "< 600"}
{"smiles": "O=C(NC1CCCCC1)c1cc(NS(=O)(=O)c2ccc(F)cc2F)cc2c1NC(=O)C21CCC1", "note": "[Compound 55, N-cyclohexyl-5′-(2,4-difluorophenylsulfonamido)-2′-oxospiro[cyclobutane-1,3′-indoline]-7′-carboxamide]", "IC50": "600 to 1000"}
{"smiles": "O=C(NC1CCCNC1)c1cc(NS(=O)(=O)c2ccc(F)cc2F)cc2c1NC(=O)C21CCC1", "note": "(single isomer, unassigned) [Compound 68, 5′-(2,4-Difluorophenylsulfonamido)-2′-oxo-N-(piperidin-3-yl)spiro[cyclobutane-1,3′-indoline]-7′-carboxamide]", "IC50": "< 600"}
{"smiles": "COc1ccccc1S(=O)(=O)Nc1cc(OCC2COCCN2)c2c(c1)C1(CCC1)C(=O)N2", "note": "(stereo not drawn) [Compound-203, 2-Methoxy-N-(7′-(morpholin-3-ylmethoxy)-2′-oxospiro[cyclobutane-1,3′-indolin]-5′-yl)benzenesulfonamide]", "IC50": "< 600"}
{"smiles": "O=C1Nc2c(NC3CCCCC3)cc(NS(=O)(=O)c3ccc(F)cc3F)cc2C12CCC2", "note": "[Compound 20, N-(7′-(cyclohexylamino)-2′-oxospiro[cyclobutane-1,3′-indolin]-5′-yl)-2,4-difluorobenzenesulfonamide]", "IC50": "> 1000"}
{"smiles": "COc1ccccc1S(=O)(=O)Nc1cc(OCc2ccc(F)cn2)c2c(c1)C1(CCC1)C(=O)N2", "note": "[Compound 148, N-(7′-((5-fluoropyridin-2-yl)methoxy)-2′-oxospiro[cyclobutane-1,3′-indolin]-5′-yl)-2-methoxybenzenesulfonamide]", "IC50": "< 600"}
{"smiles": "COc1ccc(-c2cc(NS(=O)(=O)c3ccc(F)cc3F)cc3c2NC(=O)C32CCC2)cn1", "note": "[Compound 3, 2,4-Difluoro-N-(7′-(6-methoxypyridin-3-yl)-2′-oxospiro [cyclobutane-1,3′-indolin]-5′-yl)benzenesulfonamide]", "IC50": "600 to 1000"}
{"smiles": "COc1ccccc1S(=O)(=O)Nc1cc(OCCCN(C)C)c2c(c1)C1(CCC1)C(=O)N2", "note": "[Compound 164, N-(7′-(3-(dimethylamino)propoxy)-2′-oxospiro[cyclobutane-1,3′-indolin]-5′-yl)-2-methoxybenzenesulfonamide]", "IC50": "< 600"}
{"smiles": "COc1ccccc1S(=O)(=O)Nc1cc(Oc2cc[nH]c(=O)c2)c2c(c1)C1(CCC1)C(=O)N2", "note": "[compound 213, 2-Methoxy-N-(2′-oxo-7′-((2-oxo-1,2-dihydropyridin-4-yl)oxy)spiro[cyclobutane-1,3′-indolin]-5′-yl)benzenesulfonamide]", "IC50": "< 600"}
{"smiles": "O=C1CCC(Oc2cc(NS(=O)(=O)c3ccc(Cl)cc3F)cc3c2NC(=O)C32CCC2)CC1", "note": "[Compound 176, 4-chloro-2-fluoro-N-(2′-oxo-7′-((4-oxocyclohexyl)oxy)spiro[cyclobutane-1,3′-indolin]-5′-yl)benzenesulfonamide]", "IC50": "< 600"}
{"smiles": "COc1ccccc1S(=O)(=O)Nc1cc(C(=O)NC2CCNCC2)c2c(c1)C1(CCC1)C(=O)N2", "note": "[Compound 64, 5′-((2-methoxyphenyl)sulfonamido)-2′-oxo-N-(piperidin-4-yl)spiro[cyclobutane-1,3′-indoline]-7′-carboxamide]", "IC50": "< 600"}
